Experiment [1] concerns the target T1, Myt1 kinase (recombinant PMYT-1) (Homo sapiens, UniProt Q99640).
T1 construct: full length PMYT-1 was expressed by baculovirus in insect cells; purchased Invitrogen A30984; host or cells: insect cells (baculovirus)
T1 sequence (Q99640 1-499): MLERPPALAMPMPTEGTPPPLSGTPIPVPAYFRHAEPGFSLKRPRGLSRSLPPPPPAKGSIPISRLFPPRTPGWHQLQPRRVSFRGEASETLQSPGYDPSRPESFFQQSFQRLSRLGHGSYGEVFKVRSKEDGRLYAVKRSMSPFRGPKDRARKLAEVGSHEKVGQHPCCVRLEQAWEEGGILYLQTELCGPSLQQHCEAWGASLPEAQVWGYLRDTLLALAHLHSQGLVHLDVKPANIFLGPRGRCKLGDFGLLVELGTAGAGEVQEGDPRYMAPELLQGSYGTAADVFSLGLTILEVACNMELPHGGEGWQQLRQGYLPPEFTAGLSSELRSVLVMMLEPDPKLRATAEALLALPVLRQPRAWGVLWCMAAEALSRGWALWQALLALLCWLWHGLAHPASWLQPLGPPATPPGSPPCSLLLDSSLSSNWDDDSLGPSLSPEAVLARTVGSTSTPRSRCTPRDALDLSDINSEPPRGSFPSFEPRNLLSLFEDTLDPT
Kind of experiment: Myt1 kinase binding assay (LanthaScreen Eu Kinase Binding Assay). The following applies: 3 nM tracer 178, 2.5 nM PMYT-1, 1 nM Eu-labeled antibody; read-out: Myt1 kinase Binding IC50. In a few lines:
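The binding affinity of compounds for Myt1 kinase was measured with a LanthaScreen Europium (Eu) Kinase Binding Assay, a time-resolved FRET format in which test compounds compete against a labeled kinase tracer, and the results were expressed as IC50 values describing compound binding to Myt1.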

Experiment [2] concerns the target T2, Wee1A kinase (CDK1 Tyr15 phosphorylation in ACHN renal cell carcinoma cells) (Homo sapiens, UniProt P30291).
T2 construct: pCDK1 Tyr15 immunofluorescence read-out
Kind of experiment: High-content imaging of pCdk1 Y15, Wee1A kinase target engagement in ACHN cells. It counts as cell-based. The settings on record: 4 h treatment, nuclear positivity for pCdk1 Y15 vs DMSO control, read-out: CDK1 Tyr15 Phosphorylation EC50. In a few lines:
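ACHN cells exposed to compound for 4 h over 7–5,000 nM or 0.3–200 nM, then fixed and immunostained for pCDK1 Y15 with DAPI nuclear counterstain. The percentage of pCdk1 Y15 nucleus-positive cells relative to DMSO control was imaged per well; EC50 from dose-response curves.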

The subject of another experiment is ACHN cells. In words: Cell Titer Glo viability assay, ACHN cells. The format is cell-based. The settings on record: Homo sapiens, 144 h, absolute EC50. The method, then:
Each of an ACHN renal cell carcinoma cell line (ATCC) and a DAOY medulloblastoma cell line, and an A427 lung cancer line were cultured in Minimum Essential Medium Eagle supplemented with 10% fetal calf serum (Sigma), 1% Penicillin-Streptomycin and 10 mM HEPES buffer (HyClone). Cell cultures were kept in a humidified incubator at 37 °C and 5% CO2. Cells were routinely tested for Mycoplasma contamination.
ACHN cells, DAOY cells, or A427 cells were seeded at a density of 400, 250, or 500 cells per well respectively, in tissue culture treated 384 well plates (Corning Costar). After overnight incubation, cells were treated with drugs at concentrations ranging from 17 to 10 000 nM. Viability compared to untreated control was assessed at 144 h using Cell Titer Glo assay 2.0 (Promega). […] “NT” means the compounds was not tested in the indicated cells.

In experiment [3] the target is T3, recombinant human Wee1A kinase (Homo sapiens, UniProt P30291).
T3 construct: full length Wee1 kinase was expressed by baculovirus in insect cells; purchased Invitrogen PV3817; host or cells: insect cells (baculovirus)
In words: Wee1A kinase binding assay (LanthaScreen Eu time-resolved FRET). The following applies: 30 nM tracer 178, 5 nM Wee1A kinase, 2 nM Eu-labeled antibody; 60 minutes at room temperature; read-out: Wee1A kinase Binding IC50. Put shortly: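 Full-length, baculovirus-expressed GST-tagged Wee1A (5 nM) was mixed with 2 nM Eu-anti-GST antibody, 30 nM kinase tracer 178 and compound (1% DMSO). Buffer was 50 mM HEPES pH 7.5, 10 mM MgCl2, 1 mM EGTA, 0.01% Brij-35, incubated 60 min at room temperature. TR-FRET 665/615 nm emission ratios from duplicates were curve-fitted.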

T3 sequence (P30291 whole entry): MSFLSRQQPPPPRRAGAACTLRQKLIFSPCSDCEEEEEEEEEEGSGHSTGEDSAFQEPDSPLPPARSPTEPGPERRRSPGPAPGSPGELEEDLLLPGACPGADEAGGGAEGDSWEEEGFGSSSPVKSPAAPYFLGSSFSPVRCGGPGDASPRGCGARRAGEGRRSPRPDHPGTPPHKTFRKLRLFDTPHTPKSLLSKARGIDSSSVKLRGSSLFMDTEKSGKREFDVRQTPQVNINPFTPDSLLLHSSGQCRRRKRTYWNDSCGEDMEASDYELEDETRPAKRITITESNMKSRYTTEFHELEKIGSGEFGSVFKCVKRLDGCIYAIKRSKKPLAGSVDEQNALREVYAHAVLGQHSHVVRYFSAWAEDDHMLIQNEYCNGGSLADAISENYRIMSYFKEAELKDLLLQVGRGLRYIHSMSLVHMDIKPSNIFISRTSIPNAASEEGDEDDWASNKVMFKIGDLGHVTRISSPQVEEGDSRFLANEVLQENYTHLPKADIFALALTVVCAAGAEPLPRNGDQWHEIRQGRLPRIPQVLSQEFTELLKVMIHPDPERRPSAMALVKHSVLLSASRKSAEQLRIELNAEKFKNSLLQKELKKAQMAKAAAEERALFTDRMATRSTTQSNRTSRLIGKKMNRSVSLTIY
T2 sequence (P30291 whole entry): as above

With `C=CCn1c(=O)c2cnc(Nc3ccc(OCC(F)(F)F)cc3)nc2n1-c1ccnc(OC2CCNCC2)n1` [Compound 252, 2-allyl-1-(2-(piperidin-4-yloxy)pyrimidin-4-yl)-6-((4-(2,2,2-trifluoroethoxy)phenyl)amino)-1,2-dihydro-3H-pyrazolo[3,4-d]pyrimidin-3-one], the IC50 in experiment [1] was 20 to 100 nM; in experiment [3], less than 10 nM. For the same compound, the EC50 in experiment [2] is less than 100 nM; in the experiment on ACHN cells, 100 to 500 nM.
Regarding `C=CCn1c(=O)c2cnc(Nc3ccc(OCC(C)C)cc3)nc2n1-c1cccc(OC2CCNCC2)n1` [Compound 256, 2-allyl-6-((4-isobutoxyphenyl)amino)-1-(6-(piperidin-4-yloxy)pyridin-2-yl)-1,2-dihydro-3H-pyrazolo[3,4-d]pyrimidin-3-one], the IC50 in experiment [1] is less than 20 nM; in experiment [3], less than 10 nM. Further, the concentration giving a half-maximal response (EC50) is less than 100 nM in experiment [2] and no more than 100 nM in the experiment with ACHN cells.
For `CCn1c(=O)c2cnc(Nc3ccc4c(cnn4C)c3)nc2n1-c1cccc(NC2CCN(C)CC2)n1` [Compound 288, 2-ethyl-6-[(1-methyl-1H-indazol-5-yl)amino]-1-{6-[(1-methylpiperidin-4-yl)amino]pyridin-2-yl}-1H,2H,3H-pyrazolo[3,4-d]pyrimidin-3-one], the IC50 in experiment [1] was greater than 500 nM; in experiment [3], less than 10 nM. Also, the EC50 in experiment [2] was less than 100 nM; in the experiment on ACHN cells, 100 to 500 nM.
For `CCn1c(=O)c2cnc(Nc3cccc(C)c3)nc2n1-c1cccc(OC2CCN(C)CC2)n1` [Compound 289, 2-ethyl-1-[6-(1-methyl-4-piperidyloxy)-2-pyridyl]-6-m-toluidino-1,2-dihydro-3H-1,2,5,7-tetraazainden-3-one], the IC50 is 100 to 500 nM in experiment [1] and less than 10 nM in experiment [3]. Besides, the EC50 in experiment [2] was less than 100 nM; in the experiment on ACHN cells, 100 to 500 nM.
Regarding `CCn1c(=O)c2cnc(Nc3ccc(F)cc3)nc2n1-c1cccc(OC2CCN(C)CC2)n1` [Compound 290, 2-ethyl-6-(p-fluorophenylamino)-1-[6-(1-methyl-4-piperidyloxy)-2-pyridyl]-1,2-dihydro-3H-1,2,5,7-tetraazainden-3-one], the half-inhibitory concentration (IC50) in experiment [1] is 100 to 500 nM; in experiment [3], less than 10 nM. In addition, the EC50 (in experiment [2]; with ACHN cells) was 100 to 500 nM in each case.
As for `C=CCn1c(=O)c2cnc(Nc3cncc(C)c3)nc2n1-c1cccc(OC2CCN(C)CC2)n1` [Compound 292, 1-{6-[(1-methylpiperidin-4-yl)oxy]pyridin-2-yl}-6-[(5-methylpyridin-3-yl)amino]-2-(prop-2-en-1-yl)-1H,2H,3H-pyrazolo[3,4-d]pyrimidin-3-one], the IC50 in experiment [1] was 20 to 100 nM; in experiment [3] it was less than 10 nM. The EC50 in experiment [2] is less than 100 nM; in the experiment with ACHN cells, no more than 100 nM.
As for `CCn1c(=O)c2cnc(Nc3cccc(C)c3)nc2n1-c1cccc(OC2CCNCC2)n1` [Compound 298, 2-ethyl-1-[6-(4-piperidyloxy)-2-pyridyl]-6-m-toluidino-1,2-dihydro-3H-1,2,5,7-tetraazainden-3-one], the results for the IC50 in experiment [1] and in experiment [3] were 100 to 500 nM and less than 10 nM, respectively. Besides, the concentration for a half-maximal effect (EC50) (in experiment [2]; in the experiment on ACHN cells) was 100 to 500 nM throughout.
Turning to `C=CCn1c(=O)c2cnc(Nc3ccc(C#N)cc3)nc2n1-c1cccc(OC2CCN(C)CC2)n1` [Compound 301, p-{2-allyl-1-[6-(1-methyl-4-piperidyloxy)-2-pyridyl]-3-oxo-1,2-dihydro-3H-1,2,5,7-tetraazainden-6-ylamino}benzonitrile], the IC50 was 20 to 100 nM in experiment [1] and less than 10 nM in experiment [3]. For the same compound, the EC50 in experiment [2] was less than 100 nM; in the experiment on ACHN cells, no more than 100 nM.
As to `C=CCn1c(=O)c2cnc(Nc3ccc(F)cc3)nc2n1-c1cccc(OC2CCNCC2)n1` [Compound 304, 2-allyl-6-(p-fluorophenylamino)-1-[6-(4-piperidyloxy)-2-pyridyl]-1,2-dihydro-3H-1,2,5,7-tetraazainden-3-one], the IC50 in experiment [1] was 20 to 100 nM; in experiment [3], less than 10 nM. In addition, the 50% effective concentration (EC50) is less than 100 nM in experiment [2] and 100 to 500 nM in the experiment on ACHN cells.
Regarding `C=CCn1c(=O)c2cnc(Nc3cccc(C#N)c3)nc2n1-c1cccc(OC2CCN(C)CC2)n1` [Compound 305, m-{2-allyl-1-[6-(1-methyl-4-piperidyloxy)-2-pyridyl]-3-oxo-1,2-dihydro-3H-1,2,5,7-tetraazainden-6-ylamino}benzonitrile], the figures for the IC50 in experiment [1] and in experiment [3] were 20 to 100 nM and less than 10 nM, respectively. For the same compound, the EC50 in experiment [2] is less than 100 nM; in the experiment with ACHN cells it was no more than 100 nM.
Regarding `CCn1c(=O)c2cnc(Nc3ccc4c(cnn4C)c3)nc2n1-c1cccc(OC2CCNCC2)n1` [Compound 306, 2-ethyl-6-(1-methyl-1H-indazol-5-ylamino)-1-[6-(4-piperidyloxy)-2-pyridyl]-1,2-dihydro-3H-1,2,5,7-tetraazainden-3-one], the half-inhibitory concentration (IC50) in experiment [1] was 20 to 100 nM; in experiment [3] it was less than 10 nM. Besides, the EC50 (in experiment [2]; in the experiment on ACHN cells) was 100 to 500 nM throughout.
`CCn1c(=O)c2cnc(Nc3ccc(C#N)cc3)nc2n1-c1cccc(OC2CCN(C)CC2)n1` [Compound 310, p-{2-ethyl-1-[6-(1-methyl-4-piperidyloxy)-2-pyridyl]-3-oxo-1,2-dihydro-3H-1,2,5,7-tetraazainden-6-ylamino}benzonitrile]: the IC50 in experiment [1] was 20 to 100 nM; in experiment [3] it was less than 10 nM. The EC50 (in experiment [2]; with ACHN cells) was 100 to 500 nM in each case.
Regarding `C=CCn1c(=O)c2cnc(Nc3ccc(F)cc3)nc2n1-c1ccnc(NC2CCN(C)CC2)n1` [Compound 312, 2-allyl-6-(p-fluorophenylamino)-1-[2-(1-methyl-4-piperidylamino)-4-pyrimidinyl]-1,2-dihydro-3H-1,2,5,7-tetraazainden-3-one], the values for the IC50 in experiment [1] and in experiment [3] were 100 to 500 nM and less than 10 nM, respectively. The EC50 in experiment [2] was less than 100 nM; in the experiment on ACHN cells, 100 to 500 nM.
As to `C=CCn1c(=O)c2cnc(Nc3ccc(OCC(F)(F)F)cc3)nc2n1-c1ccnc(NC2CCN(C)CC2)n1` [Compound 314, 2-allyl-1-[2-(1-methyl-4-piperidylamino)-4-pyrimidinyl]-6-[p-(2,2,2-trifluoroethoxy)phenylamino]-1,2-dihydro-3H-1,2,5,7-tetraazainden-3-one], the results for the IC50 in experiment [1] and in experiment [3] were 20 to 100 nM and less than 10 nM, respectively. The EC50 in experiment [2] is less than 100 nM; in the experiment on ACHN cells, no more than 100 nM.
Consider `C=CCn1c(=O)c2cnc(Nc3ccc4nc(C)oc4c3)nc2n1-c1cccc(OC2CCNCC2)n1` [Compound 316, 2-allyl-6-(2-methyl-1,3-benzoxazol-6-ylamino)-1-[6-(4-piperidyloxy)-2-pyridyl]-1,2-dihydro-3H-1,2,5,7-tetraazainden-3-one], for which the IC50 is 20 to 100 nM in experiment [1] and less than 10 nM in experiment [3]. Besides, the EC50 in experiment [2] is less than 100 nM; in the experiment on ACHN cells it was 100 to 500 nM.
On to `C=CCn1c(=O)c2cnc(Nc3ccc(F)cc3)nc2n1-c1cccc(OC2CCCN(C)CC2)n1` (stereo not shown) [Compound 317, 2-allyl-6-(p-fluorophenylamino)-1-[6-(1-methyl-4-azepanyloxy)-2-pyridyl]-1,2-dihydro-3H-1,2,5,7-tetraazainden-3-one], for which the half-inhibitory concentration (IC50) in experiment [1] was 20 to 100 nM; in experiment [3] it was less than 10 nM. Besides, the concentration giving a half-maximal response (EC50) (in experiment [2]; in the experiment on ACHN cells) was 100 to 500 nM throughout.

For the origin of these results see patent US20260364080A1, “PYRAZOLO-PYRIMIDINONE COMPOUNDS FOR USE IN METHODS OF INHIBITING WEE1 A KINASE” (Acrivon Therapeutics, Inc., priority 2023, published 2026).
